Like-named read-outs stand apart in the source and are kept apart here. Numbered stars: 1 amine (or outer) side, 2 acyl side, 3 side chain; on linkers, the order of the positions; unused ones are H or OH. Side chains are listed from the residue outwards. Peptide text beside a SMILES is read from it. * marks the point of attachment. Daunorubicin = COc1cccc2c1C(=O)c1c(O)c3c(c(O)c1C2=O)C[C@@](O)(C(C)=O)C[C@@H]3O[C@H]1C[C@H](N*)[C@H](O)[C@H](C)O1; 1Pyrenoyl = O=C(c1ccc2ccc3cccc4ccc1c2c34)*; Suc = O=C(CCC(=O)[*:2])[*:1]
Columns and labels:
MDA-MB-231 cells [1] = assay: In vitro cytostatic activity, Alamar-blue assay; format: cell-based, human; conditions: 3 h treatment, then 3 days in serum-containing medium, four parallels, two independent experiments, read-out: IC50 ± SD, cytostatic activity
Method: The in vitro measurements were carried out on 96-well plates containing 5 × 10^3 MDA-MB-231 cells per well. The cells were incubated for 24 h at 37 °C. The measurement started with treating these cells with the solutions of compounds for 3 h, where the final volume was 200 μL. The cytostatic activity was measured on a broad spectrum of concentrations between 0.000128 and 100 μM. Serum-free medium was used on cells for 3 h at 37 °C as control. After treatment, the compounds were washed out using a serum-free medium twice. The cells were then cultured for 72 h in a medium with serum. Alamar-blue (Resazurim) assay was used to determine the ratio of live cells and thus the IC50. Briefly, Alamar-blue solution (22.5 μL, 0.15 mg/mL in PBS (pH = 7)) was added to the cells. Synergy H4 multimode microplate reader (BioTek, Winooski, VT, USA) was used to determine the fluorescence (at λ = 530/30 nm and 610/10 nm) after 4 h incubation. Cytostasis was calculated as Cytostatic effect (%) = [1 − (ODtreated/ODcontrol)] × 100; where ODtreated and ODcontrol correspond to the optical densities of the treated and untreated cells, respectively. […] The curves were defined using MicrocalTM Origin (version 8.0, OriginLab, Northampton, MA, USA) software: cytostasis was plotted as a function of concentration, fitted to a sigmoidal curve, and the IC50 value was determined. […]

MDA-MB-231 cells [2] = conditions: ref [31], read-out: IC50, cytostatic activity; cited from earlier work
Description: Table 2 The cytostatic activity of peptide-drug conjugates on MDA-MB-231. | column: IC50 ± SD (µM) * / MDA-MB-231

MDA-MB-231 cells [3] = assay: Intracellular localization by confocal laser scanning microscopy; format: cell-based, human; conditions: MDA-MB-231, 5 μM, 15, 45 and 90 min; CLSM

Molecule | IC50 (MDA-MB-231 cells [1]) [µM] | further results
COc1cccc2c1C(=O)c1c(O)c3c(c(O)c1C2=O)C[C@@](O)(C(C)=O)C[C@@H]3O[C@H]1C[C@H](NC(=O)CCC(=O)NCCCC[C@H](NC(=O)[C@H](CCCNC(=N)N)NC(=O)[C@H](CCCNC(=N)N)NC(=O)[C@H](CCCNC(=N)N)NC(=O)[C@H](CCCNC(=N)N)NC(=O)[C@H](CCCNC(=N)N)NC(=O)[C@H](CCCNC(=N)N)NC(=O)[C@H](CCCNC(=N)N)NC(=O)[C@H](CCCNC(=N)N)NC(=O)c2ccc3ccc4cccc5ccc2c3c45)C(N)=O)[C@H](O)[C@H](C)O1 [PCA-Arg8-Lys(DauSuc)] | 28.1 ± 7.5 | 
COc1cccc2c1C(=O)c1c(O)c3c(c(O)c1C2=O)C[C@@](O)(C(C)=O)C[C@@H]3O[C@H]1C[C@H](NC(=O)CCC(=O)N[C@@H](CCCNC(=N)N)C(=O)N[C@@H](CCCNC(=N)N)C(=O)N[C@@H](CCCNC(=N)N)C(=O)N[C@@H](CCCNC(=N)N)C(=O)N[C@@H](CCCNC(=N)N)C(=O)N[C@@H](CCCNC(=N)N)C(=O)N[C@@H](CCCNC(=N)N)C(=O)N[C@@H](CCCNC(=N)N)C(=O)N[C@@H](CCCCNC(=O)c2ccc3ccc4cccc5ccc2c3c45)C(N)=O)[C@H](O)[C@H](C)O1 [DauSuc-Arg8-Lys(PCA)] | 23.7 ± 4.3 | 
succinylated daunomycin [DauSuc] |  | IC50 (MDA-MB-231 cells [2]): > 100 µM
COc1cccc2c1C(=O)c1c(O)c3c(c(O)c1C2=O)C[C@@](O)(C(C)=O)C[C@@H]3O[C@H]1C[C@H](NC(=O)CCC(=O)NCCCC[C@H](NC(=O)[C@H](CCCNC(=N)N)NC(=O)[C@H](CCCNC(=N)N)NC(=O)[C@H](CCCNC(=N)N)NC(=O)[C@H](CCCNC(=N)N)NC(=O)[C@H](Cc2c[nH]c3ccccc23)NC(=O)c2ccc3ccc4cccc5ccc2c3c45)C(N)=O)[C@H](O)[C@H](C)O1 [PCA-Trp-Arg4-Lys(DauSuc)] (1Pyrenoyl-WRRRRK([Suc-Daunorubicin])-NH2) |  | Internalization of DauSuc conjugates (Dau fluorescence) (MDA-MB-231 cells [3]): very efficient internalization

Reference: article PMC11900394, “1-Pyrene Carboxylic Acid: An Internalization Enhancer for Short Oligoarginines” (International Journal of Molecular Sciences, 2025)
